Numbered stars: 1 amine (or outer) side, 2 acyl side, 3 side chain; on linkers, the order of the positions; unused ones are H or OH. Square brackets hold non-standard residues; d marks the D form. Peptide text beside a SMILES is read from it. * marks the point of attachment. dNle = CCCC[C@@H](N)C(=O)O; Piperidide = C1CCN(*)CC1; Pyrrolidide = C1CCN(*)C1; dAbu = CC[C@@H](N)C(=O)O; Boc = CC(C)(C)OC(=O)*; CO = O=C([*:1])[*:2]; NHtBu = CC(C)(C)N*; Moc = COC(=O)*
Molecular target: T1, ETB receptor (Sus scrofa, UniProt P35463)
T1 construct: ETB receptors of porcine cerebellum membrane suspension used in the present experiments; from tissue; host or cells: porcine cerebellum membrane fraction
T1 sequence (P35463 27-443): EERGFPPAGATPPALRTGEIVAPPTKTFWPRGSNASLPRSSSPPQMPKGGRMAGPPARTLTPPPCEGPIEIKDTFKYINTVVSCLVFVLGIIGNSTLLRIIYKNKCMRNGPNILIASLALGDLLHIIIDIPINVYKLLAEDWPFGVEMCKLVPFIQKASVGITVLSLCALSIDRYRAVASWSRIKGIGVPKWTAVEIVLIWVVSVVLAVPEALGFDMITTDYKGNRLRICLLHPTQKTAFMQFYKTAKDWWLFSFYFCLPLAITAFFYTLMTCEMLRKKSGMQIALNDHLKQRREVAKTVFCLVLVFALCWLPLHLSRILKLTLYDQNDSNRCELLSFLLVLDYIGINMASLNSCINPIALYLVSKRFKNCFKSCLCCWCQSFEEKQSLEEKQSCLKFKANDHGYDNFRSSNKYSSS
Experiment: Endothelin binding inhibition test (^125I-endothelin-1, porcine cerebellum membrane suspension)
Conditions: 1.1 µM of the test compound, triplicate
Method: The cerebellum of porcine was homogenized in a buffer solution of 10 mM MOPS, pH 7.4, at 4°C by a polytron. To the homogenate, sucrose was added to a concentration of 20%, and the mixture was centrifuged at 1,000 x g for 15 minutes, and the supernatant was further centrifuged at 10,000 x g for 15 minutes. The supernatant thereof was further centrifuged at 90,000 x g for 40 minutes. The membrane precipitate thereby obtained was suspended in a buffer solution of 5 mM HEPES/Tris, pH 7.4, at a concentration of 3.3 mg/ml.
Then, 16 µl of this membrane suspension was added to 340 µl of 50 mM tris/HCl buffer, pH 7.4, containing […] calcium chloride, 10 µM magnesium chloride, 0.1 mM PMSF, 1 µM pepstatin A, 2 µM leupeptin, 1 mM 1,10-phenanthroline and 0.1% bovine serum albumin. To this suspension, 4 µl of (A) endothelin-1 (for nonspecific binding; 0.2 µM as the final concentration), (B) buffer solution A (for total control binding), or (C) a test compound (1.1 µM as the final concentration), was added. Further, to each suspension, 40 µl of ^125I-endothelin-1 (12000-18000 cpm) was added. These mixtures were incubated at 25°C for 4 hours, then subjected to filtration on a glass filter GF/C and then washed with 5 mM HEPES/Tris, pH 7.4, containing 0.3% bovine serum albumin. Then, the radioactivity trapped by the glass filter was measured, and the ^125I-endothelin-1 binding inhibition D (%) at 1.1 µM of the test compound was determined by the following equation. D(%) = 100 -((C) - (A))/((B) - (A))× 100 [formula]
Each test was performed in triplicate.
The test compounds are indicated by compound Nos.

Row | inhibition at 1.1 µM [%] | SMILES
1 | 99 | CCCC[C@@H](NC(=O)[C@@H](Cc1cn(C(=O)OC)c2ccccc12)NC(=O)[C@H](CC(C)C)NC(=O)Nc1ccccc1Cl)C(=O)O [Compound 1]
2 | 97 | CCCC[C@@H](NC(=O)[C@@H](Cc1cn(C(=O)OCC)c2ccccc12)NC(=O)[C@H](CC(C)C)NC(=O)Nc1ccccc1Cl)C(=O)O [Compound 2]
3 | 94 | CCCC[C@@H](NC(=O)[C@@H](Cc1cn(C(=O)OC)c2ccccc12)NC(=O)[C@H](CC(C)C)NC(=O)Nc1c(Cl)cccc1Cl)C(=O)O [Compound 3]
4 | 99 | CCCC[C@@H](NC(=O)[C@@H](Cc1cn(C(=O)OC)c2ccccc12)NC(=O)[C@H](CC(C)C)NC(=O)N1CCCCCC1)C(=O)O [Compound 9]
5 | 89 | CCCC[C@@H](NC(=O)[C@@H](Cc1cn(C(=O)OC)c2ccccc12)NC(=O)[C@H](CC(C)C)NC(=O)N1CCSCC1)C(=O)O [Compound 10]
6 | 73 | CCCC[C@@H](NC(=O)[C@@H](Cc1cn(C(=O)OC)c2ccccc12)NC(=O)[C@H](CC(C)C)NC(=O)N1CCCC1)C(=O)O [Compound 11] ({Pyrrolidide-CO}-Leu-[dW](Moc)-[dNle]-OH)
7 | 96 | CCCC[C@@H](NC(=O)[C@@H](Cc1cn(C(=O)OC)c2ccccc12)NC(=O)[C@H](CC(C)C)NC(=O)N1CCCCC1)C(=O)O [Compound 12] ({Piperidide-CO}-Leu-[dW](Moc)-[dNle]-OH)
8 | 72 | CCCC[C@@H](NC(=O)[C@@H](Cc1cn(C(=O)OC)c2ccccc12)NC(=O)[C@H](CC(C)C)NC(=O)N1CCSC1)C(=O)O [Compound 13]
9 | 99 | CCCC[C@@H](NC(=O)[C@@H](Cc1cn(C(=O)OC)c2ccccc12)NC(=O)[C@H](CC(C)C)NC(=O)N(C(C)C)C(C)C)C(=O)O [Compound 14]
10 | 95 | CCCC[C@@H](NC(=O)[C@@H](Cc1cn(C(=O)OC)c2ccccc12)NC(=O)[C@H](CC(C)C)NC(=O)N(CCC)C1CCCC1)C(=O)O [Compound 17]
11 | 97 | CCCC[C@@H](NC(=O)[C@@H](Cc1cn(C(=O)OC)c2ccccc12)NC(=O)[C@H](CC(C)C)NC(=O)NC12CC3CC(CC(C3)C1)C2)C(=O)O [Compound 25]
12 | 71 | CC[C@@H](NC(=O)[C@@H](Cc1cn(C(=O)OC)c2ccccc12)NC(=O)[C@H](CC(C)C)NC(=O)OC(C)(C)C)C(=O)O [Compound 26] (Boc-Leu-[dW](Moc)-[dAbu]-OH)
13 | 91 | CCCC[C@@H](NC(=O)[C@@H](Cc1cn(C(=O)OC)c2ccccc12)NC(=O)[C@H](CC(C)C)NC(=O)NC(C)(C)C)C(=O)O [Compound 27] ({NHtBu-CO}-Leu-[dW](Moc)-[dNle]-OH)
14 | 92 | CCCC[C@@H](NC(=O)[C@@H](Cc1cn(C(=O)OC)c2ccccc12)NC(=O)[C@H](CC(C)C)NC(=O)N1CCCCCCC1)C(=O)OC(C)(C)C [Compound 28]
15 | 99 | CCCC[C@@H](NC(=O)[C@@H](Cc1cn(C(=O)OC)c2ccccc12)NC(=O)[C@H](CC(C)C)NC(=O)N1CCCCCCC1)C(=O)O [Compound 29]
16 | 97 | CCCC[C@@H](NC(=O)[C@@H](Cc1c(Cl)[nH]c2ccccc12)NC(=O)[C@H](CC(C)C)NC(=O)N1C(C)CCCC1C)C(=O)O (some centres unmarked) [Compound 67]
17 | 93 | CCCC[C@@H](NC(=O)[C@@H](Cc1c(Cl)[nH]c2ccccc12)NC(=O)[C@H](CC(C)C)NC(=O)N1CCCCCC1)C(=O)O [Compound 68]
